Experimental data reported in patent US20260070929A1, “METHODS AND COMPOSITIONS FOR MODULATING KRAS(G12D)” (Ranok Therapeutics (Hangzhou) Co. LTD., priority 2022, published 2026).

What was measured:
[1] = system: ASPC1 pancreatic adenocarcinoma cells [homozygous G12D]; assay: Cancer cell line proliferation (CellTiter-Glo), ASPC1; assay type: cell-based; details: Homo sapiens, ASPC1, 72 h, 72 hr treatment, read-out: ASPC-1 CTG (EC50)
Procedure: The following cancer cell lines were employed: AGS gastric carcinoma [heterozygous G12D](ATCC, CRL-1739); A-427 lung carcinoma [heterozygous G12D](ATCC, HTB-53); ASPC1 pancreatic adenocarcinoma [homozygous G12D](ATCC, CRL-1682) and SW1990 pancreatic adenocarcinoma [homozygous G12D](ATCC CRL-2172). Cell lines were cultured essentially according to ATCC recommendations.
AGS, A-427, ASPC1, SW1990, and GP2D cells were plated in 96-well tissue culture plates at 4,000 cells/well and incubated at 37° C./5% CO2 for 72 hr in 100 μl of media. 3-fold serial dilutions of each test compound were prepared ranging from 20 μM to 1.02 nM. Each cell line was then treated with test compounds at various concentrations with a final concentration of 0.5% DMSO/well, and then incubated at 37° C./5% CO2 for 72 hr. 100 µl of CellTiter-Glo® Reagent (Promega Corporation, Madison, WI) was added to each well and processed according manufacturer's protocol. Results were analyzed and EC50 values were calculated in GraphPad 7 software.

[2] = system: AGS gastric carcinoma cells [heterozygous G12D]; assay: Cancer cell line proliferation (CellTiter-Glo), AGS; assay type: cell-based; details: Homo sapiens, 72 hr treatment, read-out: AGS CTG (EC50)
Outline: (§1)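 EC50 values come from CellTiter-Glo viability measured after 72 hr compound treatment at 37° C./5% CO2 with 0.5% final DMSO. Plating was at 4,000 cells/well with 72 hr growth before dosing, and compounds were serially diluted 3-fold from 20 μM down to 1.02 nM.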

KRAS(G12D)/SOS1 = biological target: T1, KRAS(G12D)/SOS1 (Homo sapiens, UniProt P01116, G12D); assay: KRAS(G12D)/SOS1 homogeneous time-resolved fluorescence (HTRF) assay; assay type: binding; details: absence of GTP; 4° C., 3 hr
T1 construct: purchased Cisbio 63ADK000CB17PEH
Outline: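 HTRF kit assay of compound-blocked KRAS(G12D)–SOS1 interaction, run without GTP. Compounds were tested as 3-fold dilutions from 20 µM to 1.02 nM and incubated with the reaction components for 3 hr at 4 °C, sealed. IC50 was taken as the concentration giving 50% of maximal inhibition.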

[3] = system: A-427 lung carcinoma cells [heterozygous G12D]; assay: Cancer cell line proliferation (CellTiter-Glo), A-427; assay type: cell-based; details: Homo sapiens, A-427 cells, 72 hr treatment, read-out: A427 CTG (EC50)
Outline: as §1

T1 sequence (P01116 1-188 isoform P01116-2 G12D): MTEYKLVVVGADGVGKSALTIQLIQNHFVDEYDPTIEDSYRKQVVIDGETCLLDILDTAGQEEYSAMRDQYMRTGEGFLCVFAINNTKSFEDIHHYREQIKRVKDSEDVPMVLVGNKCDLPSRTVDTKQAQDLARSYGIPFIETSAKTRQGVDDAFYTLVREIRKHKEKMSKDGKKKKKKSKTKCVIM

Structure (SMILES): CCNC(=O)c1nnc(-c2cc(C(C)C)c(O)cc2O)n1-c1ccc(CN2CCN([C@H]3C[C@@H](COc4nc(N5CC6CCC(C5)N6)c5cnc(-c6cccc7cccc(C#N)c67)c(F)c5n4)N(C)C3)CC2)cc1 [Compound 59]
- EC50 [1]: 100 to 1000 nM
- EC50 [2]: < 100 nM
- IC50 (KRAS(G12D)/SOS1): > 1000 nM
- EC50 [3]: 100 to 1000 nM

Structure (SMILES): C#Cc1cccc2cccc(-c3ncc4c(N5CC6CCC(C5)N6)nc(OCC5(CN6CCN(Cc7ccc(-n8c(O)nnc8-c8cc(C(C)C)c(O)cc8O)cc7)CC6)CC5)nc4c3F)c12 [Compound 10]
- EC50 [1]: > 1000 nM
- EC50 [2]: 100 to 1000 nM
- IC50 (KRAS(G12D)/SOS1): < 100 nM
- EC50 [3]: 100 to 1000 nM

Structure (SMILES): CC(C)c1cc(C(=O)N2Cc3ccc(CN4CCC(C(=O)N5CCN(C[C@H]6CC[C@@H](COc7nc(N8CC9CCC(C8)N9)c8cnc(-c9cc(O)cc%10ccccc9%10)c(F)c8n7)N6C)CC5)CC4)cc3C2)c(O)cc1O [Compound 70]
- EC50 [1]: > 1000 nM
- EC50 [2]: 100 to 1000 nM
- IC50 (KRAS(G12D)/SOS1): < 100 nM
- EC50 [3]: 100 to 1000 nM

Structure (SMILES): C#Cc1cccc2cc(O)cc(-c3ncc4c(N5CC6CCC(C5)N6)nc(OCC5(CN6CCN(CC7CCN(c8ccc9c(c8)CN(C(=O)c8cc(C(C)C)c(O)cc8O)C9)CC7)CC6)CC5)nc4c3F)c12 [Compound 133]
- EC50 [1]: 100 to 1000 nM
- EC50 [2]: 100 to 1000 nM
- IC50 (KRAS(G12D)/SOS1): < 100 nM
- EC50 [3]: 100 to 1000 nM

Structure (SMILES): CCNC(=O)c1nnc(-c2cc(C(C)C)c(O)cc2O)n1-c1ccc(CN2CCN([C@H]3C[C@@H](COc4nc(N5CC6CCC(C5)N6)c5cnc(-c6cccc(F)c6C)c(F)c5n4)N(C)C3)CC2)cc1 [Compound 62]
- EC50 [1]: 100 to 1000 nM
- EC50 [2]: < 100 nM
- IC50 (KRAS(G12D)/SOS1): > 1000 nM
- EC50 [3]: < 100 nM

Structure (SMILES): CC(C)c1cc(C(=O)N2Cc3ccc(CN4CCN([C@H]5C[C@@H](COc6nc(N7CC8CCC(C7)N8)c7cnc(-c8cccc9cccc(C#N)c89)c(F)c7n6)N(C)C5)CC4)cc3C2)c(O)cc1O [Compound 63]
- EC50 [1]: 100 to 1000 nM
- EC50 [2]: 100 to 1000 nM
- IC50 (KRAS(G12D)/SOS1): 100 to 1000 nM
- EC50 [3]: < 100 nM

Structure (SMILES): C#Cc1cccc2cccc(-c3ncc4c(N5CC6CCC(C5)N6)nc(OC[C@@H]5C[C@H](N6CCN(Cc7ccc(-n8c(O)nnc8-c8cc(C(C)C)c(O)cc8O)cc7)CC6)CN5C)nc4c3F)c12 [Compound 26]
- EC50 [1]: > 1000 nM
- EC50 [2]: 100 to 1000 nM
- IC50 (KRAS(G12D)/SOS1): < 100 nM
- EC50 [3]: 100 to 1000 nM

Structure (SMILES): CCc1cc(-c2nnc(C(=O)NC)n2-c2ccc(CN3CCN(C(=O)C4CCN([C@H]5C[C@@H](COc6nc(C7CC8CCC(C7)N8)c7cnc(-c8cccc9cccc(Cl)c89)c(F)c7n6)N(C)C5)CC4)CC3)cc2)c(O)cc1O (stereo partly shown) [Compound 9]
- EC50 [1]: > 1000 nM
- EC50 [2]: 100 to 1000 nM
- IC50 (KRAS(G12D)/SOS1): 100 to 1000 nM
- EC50 [3]: > 1000 nM

Structure (SMILES): CCNC(=O)c1nnc(-c2cc(C(C)C)c(O)cc2O)n1-c1ccc(CN2CCN([C@H]3C[C@@H](COc4nc(N5CC6CCC(C5)N6)c5cnc(-c6cccc7cccc(C)c67)c(F)c5n4)N(C)C3)CC2)cc1 [Compound 29]
- EC50 [1]: 100 to 1000 nM
- EC50 [2]: < 100 nM
- IC50 (KRAS(G12D)/SOS1): 100 to 1000 nM
- EC50 [3]: < 100 nM

Structure (SMILES): C#Cc1cccc2cc(O)cc(-c3ncc4c(N5CC6CCC(C5)N6)nc(OCC5(CN6CCC(OC7CCN(Cc8ccc(-n9c(C(=O)NC(C)C(F)(F)F)nnc9-c9cc(C(C)C)c(O)cc9O)cc8)CC7)CC6)CC5)nc4c3F)c12 (stereo not shown) [Compound 140]
- EC50 [1]: < 100 nM
- EC50 [2]: < 100 nM
- IC50 (KRAS(G12D)/SOS1): < 100 nM
- EC50 [3]: < 100 nM

Structure (SMILES): C#Cc1cccc2cccc(-c3ncc4c(N5CC6CCC(C5)N6)nc(OC[C@@H]5CC[C@H](CN6CCN(Cc7ccc(-n8c(O)nnc8-c8cc(C(C)C)c(O)cc8O)cc7)CC6)N5C)nc4c3F)c12 [Compound 15]
- EC50 [1]: > 1000 nM
- EC50 [2]: 100 to 1000 nM
- IC50 (KRAS(G12D)/SOS1): < 100 nM
- EC50 [3]: 100 to 1000 nM

Structure (SMILES): CCNC(=O)c1nnc(-c2cc(C(C)C)c(O)cc2O)n1-c1ccc(CN2CCN([C@H]3C[C@@H](COc4nc(N5CC6CCC(C5)N6)c5cnc(-c6ccccc6C(F)(F)F)c(F)c5n4)N(C)C3)CC2)cc1 [Compound 60]
- EC50 [1]: 100 to 1000 nM
- EC50 [2]: < 100 nM
- IC50 (KRAS(G12D)/SOS1): > 1000 nM
- EC50 [3]: 100 to 1000 nM

Structure (SMILES): CCNC(=O)c1nnc(-c2cc(C(C)C)c(O)cc2O)n1-c1ccc(CN2CCC(C(=O)N3CCN([C@H]4C[C@@H](COc5nc(N6CC7CCC(C6)N7)c6cnc(-c7cccc8cccc(C)c78)c(F)c6n5)N(C)C4)CC3)CC2)cc1 [Compound 24]
- EC50 [1]: 100 to 1000 nM
- EC50 [2]: < 100 nM
- IC50 (KRAS(G12D)/SOS1): 100 to 1000 nM
- EC50 [3]: < 100 nM
